In patent US8580815B2, “Derivatives of azaindoles as inhibitors of protein kinases ABL and SRC” (Oribase Pharma, priority 2009, dated 2013):
“And” between values parts separate entries of the source, which are not always exact repeats. Equal entries are not always repeated.

How the values were obtained:
[1] = target: Src kinase (Homo sapiens (Human), UniProt P12931); assay: Reaction Biology Corp. kinase assay, Src; conditions: compounds tested by Reaction Biology Corp.; for inhibition at 10 µM: read-out: % inhibition of kinase activity, Src (category), 10 μM; for IC50: IC50 on kinase Src (category), ATP at 10 μM
[2] = target: Abl T315I (Homo sapiens (Human), UniProt P00519, T315I); assay: Reaction Biology Corp. kinase assay, mutated Abl T315I; type: biochemical; conditions: 10 μM; Reaction Biology Corp.; read-out: % inhibition of kinase activity, Abl T315I (category)
Procedure: (§1) 4 compounds were tested for their capacity to inhibit various mutated kinases AbI (American company, Reaction Biology Corp.).

[3] = target: Abl WT (Homo sapiens (Human), UniProt P00519); assay: Reaction Biology Corp. kinase assay, Abl WT; type: biochemical; conditions: compounds tested by Reaction Biology Corp.; for inhibition at 10 µM: read-out: % inhibition of kinase activity, Abl WT (category); for IC50: ATP at 10 μM, read-out: IC50 on kinase Abl WT (category)
Procedure: as §1

Sequence of Src kinase (P12931 whole entry, looked up): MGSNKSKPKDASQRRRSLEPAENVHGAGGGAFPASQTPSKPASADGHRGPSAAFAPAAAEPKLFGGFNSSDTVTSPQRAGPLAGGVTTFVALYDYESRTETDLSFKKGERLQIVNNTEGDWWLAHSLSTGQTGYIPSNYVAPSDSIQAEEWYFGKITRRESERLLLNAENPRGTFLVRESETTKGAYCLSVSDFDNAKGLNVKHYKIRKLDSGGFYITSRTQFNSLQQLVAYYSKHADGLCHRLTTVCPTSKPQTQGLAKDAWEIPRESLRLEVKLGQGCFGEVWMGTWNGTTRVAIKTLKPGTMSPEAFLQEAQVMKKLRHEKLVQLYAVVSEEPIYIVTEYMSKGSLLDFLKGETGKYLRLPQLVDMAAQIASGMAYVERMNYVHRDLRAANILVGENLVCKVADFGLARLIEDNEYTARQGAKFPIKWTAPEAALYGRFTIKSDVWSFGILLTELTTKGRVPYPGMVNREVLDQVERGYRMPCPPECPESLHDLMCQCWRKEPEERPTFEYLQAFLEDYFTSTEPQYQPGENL

COC(=O)c1cc2cc(NC(=O)c3cc(C)n[nH]3)cnc2[nH]1 [ND0085]
inhibition at 10 µM [1]: 10 to 50%
inhibition at 10 µM [2]: < 10%
inhibition at 10 µM [3]: > 50%
IC50 [3]: 100 to 10000 nM

COC(=O)c1cc2cc(NCc3ccccc3C(F)(F)F)cnc2[nH]1 [ND0091]
IC50 [1]: 100 to 10000 nM
inhibition at 10 µM [1]: > 50%
inhibition at 10 µM [2]: < 10%
inhibition at 10 µM [3]: > 50%
IC50 [3]: 100 to 10000 nM

COC(=O)c1cc2cc(NCc3nccs3)cnc2[nH]1 [ND0094]
IC50 [1]: 100 to 10000 nM
inhibition at 10 µM [1]: > 50%
inhibition at 10 µM [2]: 10 to 50%
inhibition at 10 µM [3]: > 50%
IC50 [3]: 100 to 10000 nM

COC(=O)c1cc2cc(NCc3ccc(S(N)(=O)=O)cc3)cnc2[nH]1 [ND0101]
inhibition at 10 µM [1]: 10 to 50%
inhibition at 10 µM [2]: < 10%
inhibition at 10 µM [3]: > 50%

COC(=O)c1cc2cc(NC(=O)c3ccc4[nH]ccc4c3)cnc2[nH]1 [ND0082]
inhibition at 10 µM [1]: < 10%
inhibition at 10 µM [2]: < 10%
inhibition at 10 µM [3]: > 50%
IC50 [3]: 100 to 10000 nM

COC(=O)c1cc2cc(NCc3ccccc3Br)cnc2[nH]1 [ND0057]
IC50 [1]: 100 to 10000 nM
inhibition at 10 µM [1]: > 50%
inhibition at 10 µM [2]: < 10%
inhibition at 10 µM [3]: > 50%
IC50 [3]: 100 to 10000 nM

COC(=O)c1cc2cc(NC(=O)c3cccs3)cnc2[nH]1 [ND0079, Methyl 5-(thiophene-2-carboxamido)-1H-pyrrolo[2,3-b]pyridine-2-carboxylate]
inhibition at 10 µM [1]: 10 to 50%
inhibition at 10 µM [2]: < 10%
inhibition at 10 µM [3]: 10 to 50%

COC(=O)c1cc2cc(NCc3cc[nH]n3)cnc2[nH]1 [ND0098]
IC50 [1]: 100 to 10000 nM
inhibition at 10 µM [1]: > 50%
inhibition at 10 µM [2]: < 10%
inhibition at 10 µM [3]: > 50%
IC50 [3]: 100 to 10000 nM

COC(=O)c1cc2cc(Nc3cccc(I)c3)cnc2[nH]1 [ND0103]
inhibition at 10 µM [1]: 10 to 50%
inhibition at 10 µM [2]: < 10%
inhibition at 10 µM [3]: 10 to 50%

COC(=O)c1cc2cc(NC(=O)c3ccccc3OC(F)(F)F)cnc2[nH]1 [ND0078, Methyl 5-(2-(trifluoromethoxy)benzamido)-1H-pyrrolo[2,3-b]pyridine-2-carboxylate]
inhibition at 10 µM [1]: 10 to 50%
inhibition at 10 µM [2]: < 10%
inhibition at 10 µM [3]: 10 to 50%

COC(=O)c1cc2cc(NC(=O)c3ccccc3C(F)(F)F)cnc2[nH]1 [ND0077, Methyl 5-(2-(trifluoromethyl)benzamido)-1H-pyrrolo[2,3-b]pyridine-2-carboxylate]
IC50 [1]: 1 to 100 nM and 100 to 10000 nM
inhibition at 10 µM [1]: > 50%
inhibition at 10 µM [2]: < 10%
inhibition at 10 µM [3]: > 50%
IC50 [3]: 1 to 100 nM

COC(=O)c1cc2cc(NC(=O)c3cccc(Br)c3)cnc2[nH]1 [ND0075, Methyl 5-(3-bromobenzamido)-1H-pyrrolo[2,3-b]pyridine-2-carboxylate]
inhibition at 10 µM [1]: 10 to 50%
inhibition at 10 µM [2]: 10 to 50%
inhibition at 10 µM [3]: 10 to 50%

COC(=O)c1cc2cc(NCc3ccccc3OC(F)(F)F)cnc2[nH]1 [ND0092]
inhibition at 10 µM [1]: < 10%
inhibition at 10 µM [2]: < 10%
inhibition at 10 µM [3]: 10 to 50%

COC(=O)c1cc2cc(Nc3ccc(I)cc3)cnc2[nH]1 [ND0108]
inhibition at 10 µM [1]: 10 to 50%
inhibition at 10 µM [2]: 10 to 50%
inhibition at 10 µM [3]: 10 to 50%

COC(=O)c1cc2cc(NC(=O)c3cccc(S(=O)(=O)NCc4ccco4)c3)cnc2[nH]1 [ND0086]
inhibition at 10 µM [1]: < 10%
inhibition at 10 µM [2]: < 10%
inhibition at 10 µM [3]: 10 to 50%

COC(=O)c1cc2cc(NCc3ncc[nH]3)cnc2[nH]1 [ND0095]
inhibition at 10 µM [1]: 10 to 50%
inhibition at 10 µM [2]: < 10%
inhibition at 10 µM [3]: 10 to 50%

COC(=O)c1cc2cc(NC(=O)c3ccccc3OC)cnc2[nH]1 [ND0073, Methyl 5-(2-methoxybenzamido)-1H-pyrrolo[2,3-b]pyridine-2-carboxylate]
inhibition at 10 µM [1]: 10 to 50%
inhibition at 10 µM [2]: < 10%
inhibition at 10 µM [3]: 10 to 50%

COC(=O)c1cc2cc(NCc3cccs3)cnc2[nH]1 [ND0093]
IC50 [1]: 100 to 10000 nM
inhibition at 10 µM [1]: > 50%
inhibition at 10 µM [2]: 10 to 50%
inhibition at 10 µM [3]: > 50%
IC50 [3]: 100 to 10000 nM
